Experimental findings from US8859235B2, “Methods in cell cultures, and related inventions, employing certain additives” (priority 2009, dated 2014) are described below.

The test system of one assay is E. coli JM109. The assay can be described thus: Growth and GFPuv expression in E. coli JM109, shake flask cultivation in mineral medium. The note with it: Experiment 2, additive 5 mM, 20 h, mean of two. The class given is cell-based, Escherichia coli. As to the method:
Precultures are prepared in 250 mL baffled shake flasks containing 25 mL sterile mineral medium [macronutrients in g/L: Glycerol (25), (NH4)2-citrate (1.0), Na2HPO4 2H2O (9.0), KH2PO4 (1.82), NH4Cl (1.52), MgSO4 (0.12), (NH4)2SO4 (0.6); Ampicillin ([…]); micronutrients in mg/L: Na2-EDTA (8.4), thiamine (4.5), Fe(III) citrate (12.5), Na2MoO4 2×H2O (2.5), H3BO3 (3), CoCl2 6×H2O (2.5), CuSO4 5×H2O (0.45) MnCl24×H2O (15), ZnCl2 (8) adjusted to pH 7.0]. Cultures are inoculated with 250 μL of a glycerol stock stored at −80° C. of E. coli JM109 (Promega Inc, Wallisellen, C H; Genotype: endA1, recA1, gyrA96, thi, hsdR17 (rk^−, mk^+), re/A1, supE44, Δ(lac-proAB), [F″ traD36, proAB, laql^qZΔM15]) harboring the plasmid pBAD-GFPuv (Biorad Inc., Reinach, C H; Genbank U62637.1, containing the GFPuv gene under control of the ara promoter; GFP=Green Fluorescent Protein). Precultures are incubated at 37° C. for 10-12 h.
Experimental cultures are performed in a volume of 25 mL of the above described medium in 250 mL baffled shake flasks. Stabilizers according to the invention are added to a final concentration of 5 mM as indicated from sterile stock solutions. Cultures are started by inoculating with the preculture to an optical density at 600 nm (OD600) of 0.25. Growth of the culture is monitored by reading optical density at 600 nm. Cultures are induced by adding L-arabinose to a final concentration of 0.2% (w/v) when the OD600 reaches 0.5. Samples of 1 mL are taken 6 and 20 h after induction for OD600 reading and GFP quantification. For GFP quantification 1 mL of the culture is harvested after 2-4 h and after 20 h after induction. Cells are collected by centrifugation at 16 000 g and the cell pellet is stored at −20° C. for further analysis.
(§1) The measurement of GFP expression by whole cell fluorescence measurements follows the procedure of Scholz et al. (Eur. J. Biochem., 2000,267, 1565-1570). Frozen cell pellets are thawed, resuspended in 1 mL PBS [NaCl (8 g/L), KCl (0.2), of Na2HPO4 (1.44), KH2PO4 (0.24), adjusted to pH 7.4] and subsequently diluted to an optical density of 0.1. GFP fluorescence of whole cells is measured in a Eclipse Fluorometer (Varian) with an excitation wavelength of 400 nm and an emission wavelength of 512 nm. Specific relative fluorescence [RFU/OD600] is calculated by dividing the relative fluorescence emmision units by the optical density of the suspension at 600 nm.

The subject of a further assay is E. coli BL21. The experiment in a line: Time course of growth and GFP expression in E. coli BL21 in high cell density fed-batch cultivation in mineral medium. The note with it: for RFU/OD / OD: additive 5 mM; for OD Factor / RFU/OD Factor: additive vs control. The assay is classed as cell-based, Escherichia coli. The procedure: as §1
E. coli BL21 [Novagen, Madison, USA; Genotype: E ompT hsdSB (rB^− mB^−) gal dcm (DE3)] harboring the plasmid pET28a-GFPuv was constructed as detailed in Example 2. A first preculture is initiated from glycerol stocks stored at −80° C. in 3 mL of LB medium containing 0.01% (v/v) Antifoam A (Fluke). After growth for 10-12 h it is used to seed 2×100 mL of mineral medium (as described in Example 1) containing 0.01% Antifoam A (silicone fluid containing a suspension of finely powdered silica to enhance its defoaming efficiency; Dow Corning Corporation, Midland, Mich., USA), in 1 L baffled shake flasks. After 10-12 h this culture is centrifuged, resuspended in 50 mL mineral medium and is used to inoculate the main culture.
Cultivation is performed in BioFlow110 bioreactors (Total volume 2.2 L; New Brunswick Scientific, Nürtingen, Germany) filled with 1 L of mineral medium plus 0.01% (v/v) Antifoam A for the batch phase. Reactors are equipped with pH, pO2 and foam probes, mass flow controllers to control gas flow and ratio of air and pure oxygen and pumps for automated dosage of base (14% [v/v] aqueous NH3), antifoam (25% [v/v] Antifoam A) and nutrient feed solution. The agitation is set to 500 rpm and air is supplied at a gas flow rate of 2 L/min. The fedbatch culture is inoculated to an OD600 of 0.25-0.5 and allowed to grow unlimited with a specific growth rate of ˜0.5 h^−1. Growth is monitored by measuring OD600. When the dissolved oxygen concentration decreases to 30%, automated adjustment of the air:oxygen ratio in the gas mix is started to control dO2 to 30% using a PID loop. When the gas mix consisted of 100% oxygen a further increase in oxygen transfer is achieved through increasing the agitation rate up to a maximum level of 1200 rpm. When glycerol in the batch medium is completely consumed, as indicated by a distinct drop of pure oxygen in the gas mix, feeding solutions (first containing 70 g/L glycerol and later as cell density increased 200 g/L glycerol in mineral medium) are pumped into the reactor by a predefined exponential fed scheme. The feeding rate is calculated to allow the cells to grow at a growth rate of approximately 0.15 h^−1. During the feeding phase dO2 is also kept at 30%. 3-6 h after starting the feeding protein expression is induced by the addition of 0.2 (w/v) L-arabinose. Samples are taken every hour for OD600 reading and to obtain cell pellets which are stored at −20° C. for further analysis. Analysis of in vivo GFP fluorescence is performed by the method described in Example 1.

Setting [1] is: cultivation time 16.5 h, 2.5 h after induction.
Where [2] appears, read: cultivation time 20.8 h, 6.0 h after induction.
The mark [3] stands for this setting: cultivation time 32.5 h, 18 h after induction.

Turning to `CC1(C)CC(O)CC(C)(C)N1[O]` [4-Hydroxy-2,2,6,6-tetramethylpiperidin-1-oxyl], the “Growth (Final OD600)” value in the assay on E. coli JM109 (control 11.0) was found to be 9.5 OD600. Moreover, the “GFP expression (Relative fluorescence unit*OD600^−1)” value in the assay with E. coli JM109 (control 1423) is 7276 Relative fluorescence unit*OD600^−1. The RFU/OD in the assay on E. coli BL21 (cultivation time 16.5 h, 2.5 h after induction, control 9.1) was 107.9 RFU/OD; in the assay on E. coli BL21 (cultivation time 20.8 h, 6.0 h after induction, control 264.7), 678.8 RFU/OD; in the assay on E. coli BL21 (cultivation time 32.5 h, 18 h after induction, control 486.5), 873 RFU/OD. Besides, the OD with E. coli BL21 (cultivation time 16.5 h, 2.5 h after induction, control 30.11) worked out at 43.57 OD; with E. coli BL21 (cultivation time 20.8 h, 6.0 h after induction, control 48.46), 68.52 OD; in the assay on E. coli BL21 (cultivation time 32.5 h, 18 h after induction, control 83.39), 94.75 OD. Besides, the “OD Factor” value in the assay with E. coli BL21 (setting [1]) stood at 1.45; in the assay with E. coli BL21 (setting [2]) it was 1.41; in the assay with E. coli BL21 (setting [3]) it was 1.14. The figures for the “RFU/OD Factor” value in the assay with E. coli BL21 (setting [1]), in the assay on E. coli BL21 (setting [2]) and in the assay on E. coli BL21 (setting [3]) were 11.86, 2.56 and 1.79, respectively.
